# Like-named read-outs stand apart in the source and are kept apart here.
# What was measured:
# CYP6M7 = conditions: two earlier studies; ref [28]; cited from earlier work
# CYP6P9a = conditions: two earlier studies; ref [28]; cited from earlier work
# CYP6Z2 [1] = target: T1, CYP6Z2 (Anopheles gambiae, UniProt Q7PNB5); assay: Inhibition screening of pyrethroids, diethoxyfluorescein, CYP6Z2; format: biochemical
# T1 sequence (Q7PNB5 1-492): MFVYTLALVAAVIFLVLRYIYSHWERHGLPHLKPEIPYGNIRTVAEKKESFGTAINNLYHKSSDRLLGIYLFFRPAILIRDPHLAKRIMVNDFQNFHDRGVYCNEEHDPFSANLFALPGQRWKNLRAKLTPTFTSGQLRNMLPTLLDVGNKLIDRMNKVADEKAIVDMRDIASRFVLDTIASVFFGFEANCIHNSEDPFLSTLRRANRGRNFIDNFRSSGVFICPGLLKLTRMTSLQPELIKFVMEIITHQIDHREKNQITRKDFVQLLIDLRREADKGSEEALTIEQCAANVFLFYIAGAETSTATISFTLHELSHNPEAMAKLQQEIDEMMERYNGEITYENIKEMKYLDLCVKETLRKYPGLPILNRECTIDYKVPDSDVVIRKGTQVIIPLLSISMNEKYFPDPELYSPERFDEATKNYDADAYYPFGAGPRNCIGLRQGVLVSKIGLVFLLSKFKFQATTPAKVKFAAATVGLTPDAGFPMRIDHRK
# T1 sequence (Q86QH5 1-679 partner): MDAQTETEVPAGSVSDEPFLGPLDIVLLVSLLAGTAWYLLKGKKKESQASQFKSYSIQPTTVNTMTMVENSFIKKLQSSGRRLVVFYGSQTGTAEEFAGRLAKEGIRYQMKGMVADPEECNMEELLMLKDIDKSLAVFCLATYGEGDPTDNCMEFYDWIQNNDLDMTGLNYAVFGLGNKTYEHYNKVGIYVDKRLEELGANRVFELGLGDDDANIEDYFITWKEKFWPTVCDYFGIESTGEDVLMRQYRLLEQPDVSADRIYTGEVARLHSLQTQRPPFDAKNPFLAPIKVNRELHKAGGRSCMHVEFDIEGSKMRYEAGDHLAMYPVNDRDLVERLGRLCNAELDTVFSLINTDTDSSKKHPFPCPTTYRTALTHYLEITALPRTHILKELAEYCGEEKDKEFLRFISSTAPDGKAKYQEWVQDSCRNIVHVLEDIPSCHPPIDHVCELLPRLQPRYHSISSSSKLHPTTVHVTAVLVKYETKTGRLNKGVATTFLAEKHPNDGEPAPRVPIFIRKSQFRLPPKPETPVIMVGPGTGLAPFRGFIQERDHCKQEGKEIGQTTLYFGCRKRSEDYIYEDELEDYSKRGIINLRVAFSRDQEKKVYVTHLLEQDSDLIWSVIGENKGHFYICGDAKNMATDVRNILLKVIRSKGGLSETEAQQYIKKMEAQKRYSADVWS
# CYP6P9b = conditions: two earlier studies; ref [28]; cited from earlier work
# CYP6Z2 [2] = target: T1, CYP6Z2; conditions: read-out: IC50 CYP6Z2; inhibition of diethoxyfluorescein metabolism; footnote a; ref Yunta et al. 2016[8]; cited from earlier work
# [3] = tested on: An. funestus strain, FUMOZ-R; parameters: method as in PMID 26930058; conditions: strain with upregulated P450 levels without any target-site mutations; ref [47]; cited from earlier work
SMILES,IC50 (CYP6Z2 [1]),IC50 (CYP6Z2 [2]),"effectiveness with or without piperonyl butoxide (PBO), in words [3]",further results
"Cc1c(COC(=O)[C@@H]2[C@H](/C=C(\Cl)C(F)(F)F)C2(C)C)cccc1-c1ccccc1 (racemic) [Bifenthrin, bifenthrin]",20.7 µM,–,–,depletion (metabolised) by CYP6M7 (CYP6M7): 62%; depletion (metabolised) by CYP6P9a (CYP6P9a): 68%; depletion (metabolised) by CYP6P9b (CYP6P9b): 71%
"CC1(C)[C@H](C(=O)O[C@H](C#N)c2cccc(Oc3ccccc3)c2)[C@@H]1/C=C(\Cl)C(F)(F)F (racemic) [λ-Cyhalothrin, λ-cyhalothrin]",18.6 µM,–,–,–
"CC1(C)[C@H](C(=O)O[C@H](C#N)c2cccc(Oc3ccccc3)c2)[C@@H]1C=C(Br)Br [Deltamethrin, deltamethrin]",–,13.9 µM,only effective when partnered with PBO,–
"CCOc1ccc(C(C)(C)COCc2cccc(Oc3ccccc3)c2)cc1 [Etofenprox, etofenprox]",2.8 µM,–,–,–
"CC1(C)C(C=C(Cl)Cl)C1C(=O)OCc1cccc(Oc2ccccc2)c1 (stereo not shown) [Permethrin, permethrin]",–,13.7 µM,only effective when partnered with PBO,–

# Reference: PMC7893915, “Assessing cross-resistance within the pyrethroids in terms of their interactions with key cytochrome P450 enzymes and resistance in vector populations” (Parasites & Vectors, 2021)
